This passage reports Binding % results from patent US11377441B2, “Covalent inhibitors of KRAS” (Araxes Pharma LLC, priority 2017, dated 2022).

The target of this test is T1, KRAS G12C 1-169, his-tagged protein, GDP-loaded (Homo sapiens, UniProt P01116, G12C).
T1 construct: KRAS G12C 1-169, his-tagged protein, GDP-loaded
As to the kind of experiment: Biochemical assay: covalent modification of KRAS G12C measured by mass spectrometry (RapidFire/TOF or Q-Exactive). Type of test: binding. The note with it: covalent binding to (modification of) KRAS G12C after a ten minute incubation period. As to the method:
Test compounds were prepared as 10 mM stock solutions in DMSO (Fisher cat #BP-231-100). KRAS G12C 1-169, his-tagged protein, GDP-loaded is diluted to 2 μM or 0.5 μM in buffer (20 mM Hepes, 150 mM NaCl, 1 mM MgCl2). Compounds were tested for activity as follows:
Compounds were diluted to 50× final test concentration in DMSO in 96-well storage plates. Compound stock solutions were vortexed before use and observed carefully for any sign of precipitation. Dilutions are as follow: • For 100 μM final compound concentration, compounds were diluted to 5000 μM (5 μL 10 mM compound stock+5 μL DMSO and mixed well by pipetting. • For 30 μM final compound concentration, compounds were diluted to 1500 μM (3 μL 10 mM compound stock+17 μL DMSO) and mixed well by pipetting. • For 10 μM final compound concentration, compounds were diluted to 500 μM (2 μL 10 mM compound stock+38 μL DMSO) and mixed well by pipetting. 49 μL of the stock protein solution was added to each well of a 96-well PCR plate (Fisher cat #1423027). 1 μL of the diluted 50× compounds were added to appropriate wells in the PCR plate using 12-channel pipettor. Reactions were mixed carefully and thoroughly by pipetting up/down with a 200 μL multi-channel pipettor. The plate was sealed well with aluminum plate seal, and stored in drawer at room temperature for 10 minutes, 30 minutes, 2 hours or 24 hours. 5 μL of 2% formic acid (Fisher cat #A117) in de-ionized H2O was then added to each well followed by mixing with a pipette. The plate was then resealed with aluminum seal and stored on dry ice until analyzed as described below.
The above described assays were analyzed by mass spectrometry according to one of the following two procedures:
The MS instrument was set to positive polarity, 2 GHz resolution, and low mass (1700) mode and allowed to equilibrate for 30 minutes. The instrument was then calibrated, switched to acquisition mode and the appropriate method loaded.
After another 30 minute equilibration time, a blank batch (i.e., buffer) was run to ensure equipment is operating properly. The samples were thawed at 37° C. for 10 minutes, briefly centrifuged, and transfer to the bench top. Wells A1 and H12 were spiked with 1 μL 500 μM internal standard peptide, and the plates centrifuged at 2000×g for 5 minutes. The method was then run and masses of each individual well recorded.
The masses (for which integration data is desired) for each well were pasted into the platemap and exported from the analysis. Masses for the internal standards were exported as well. The data at 50 ppm was extracted for the +19 charge state, and identity of well A1 was assigned using the internal standard spike and integrated. Peak data was exported as a TOF list and the above steps were repeated individually, for the +20, 21, 22, 23, 24, and 25 charge states.
The masses and peak intensities of KRAS G12C protein species were measured using a Dionex RSLCnano system (Thermo Scientific) connected to a Q Exactive Plus mass spectrometer (Thermo Scientific).
[…] of sample was each loaded onto a Aeris™ 3.6 μm WIDEPORE C4 200 Å, LC Column 50×2.1 mm column maintained at 40° C. at a flow rate of 600 μL/min with 20% Solvent A (0.1% formic acid in H2O) and […] (0.1% formic acid in acetonitrile). The liquid chromatography conditions were 20% solvent B for 1 minute, 20% to 60% solvent B for 1.5 minutes, 60% to 90% solvent for 0.5 minute, 90% solvent B for 0.2 minute, 90% to 20% solvent B for 0.2 minute, and then equilibrated for 1.6 minutes before the following sample injection. The flow rate was maintained at 600 μL/min throughout the sample analysis.
The mass spectrometer was operated in profile mode at a resolution of 17500, 5 microscans, using 50 msec max injection time and an AGC target of 1×10^6, and a full mass range from 800-1850 m/z was recorded. The HCD trapping gas was optimized for maximum sensitivity for intact proteins. […]
Turning to `C=CC(=O)N1C[C@H](C)N(c2nc(OC[C@@H]3COCCN3C)nc3c(F)c(-c4c(C)ccc5cnn(C)c45)c(Cl)cc23)C[C@H]1C` [Compound 182, 1-((2R,5S)-4-(6-chloro-7-(1,6-dimethyl-1H-indazol-7-yl)-8-fluoro-2-(((S)-4-methylmorpholin-3-yl)methoxy)quinazolin-4-yl)-2,5-dimethylpiperazin-1-yl)prop-2-en-1-one], the Binding % result is “++ (++ indicates binding activity from 50 to 80%)”.
In the case of `[2H]C([2H])([2H])N(C1CN(c2nc(N3C[C@@H](C)N(C(=O)C=C)C[C@@H]3C)c3cc(Cl)c(-c4c(C)ccc5[nH]nc(C)c45)c(F)c3n2)C1)C([2H])([2H])[2H]` (atropisomer, axis not shown) [Compound 222, 1-((2R,5S)-4-((S)-6-chloro-7-(3,5-dimethyl-1H-indazol-4-yl)-2-(3-(di-perdeuteromethylamino)azetidin-1-yl)-8-fluoroquinazolin-4-yl)-2,5-dimethylpiperazin-1-yl)prop-2-en-1-one], the Binding % entry is “+ (+ indicates binding activity greater than 0% and up to 50%)”.
For `C=CC(=O)N1C[C@H](C)N(c2nc(NC3CCN(C4CC4)CC3)nc3c(F)c(-c4c(C)ccc5[nH]nc(N)c45)c(Cl)cc23)C[C@H]1C` [Compound 80, 1-((2R,5S)-4-(7-(3-amino-5-methyl-1H-indazol-4-yl)-6-chloro-2-(1-cyclopropylpiperidin-4-ylamino)-8-fluoroquinazolin-4-yl)-2,5-dimethylpiperazin-1-yl)prop-2-en-1-one], the Binding % result was “+++ (+++ indicates binding activity greater than 80%)”.
For `C=CC(=O)N1C[C@H](C)N(c2nc(N3CC(N(C)C)C3)nc3c(F)c(-c4cncc5[nH]ncc45)c(Cl)cc23)C[C@H]1C` [Compound 77, 1-((2R,5S)-4-(6-chloro-2-(3-(dimethylamino)azetidin-1-yl)-8-fluoro-7-(1H-pyrazolo[3,4-c]pyridin-4-yl)quinazolin-4-yl)-2,5-dimethylpiperazin-1-yl)prop-2-en-1-one], the Binding % result is “+ (+ indicates binding activity greater than 0% and up to 50%)”.
In the case of `C=CC(=O)N1C[C@H](C)N(c2nc(NC3CCN(C4CC4)CC3)nc3c(F)c(-c4c(C)ccc5[nH]nc(C6CC6)c45)c(Cl)cc23)C[C@H]1C` (atropisomer, axis not shown) [Compound 110, 1-((2R,5S)-4-((S)-6-chloro-7-(3-cyclopropyl-5-methyl-1H-indazol-4-yl)-2-(1-cyclopropylpiperidin-4-ylamino)-8-fluoroquinazolin-4-yl)-2,5-dimethylpiperazin-1-yl)prop-2-en-1-one] it was “+ (+ indicates binding activity greater than 0% and up to 50%)”.
For the compound `C=CC(=O)N1C[C@H](C)N(c2nc(N3CC(N(C)C)C3)nc3c(F)c(-c4c(C)cnc5[nH]ncc45)c(Cl)cc23)C[C@H]1C` [Compound 56, 1-((2R,5S)-4-(6-chloro-2-(3-(dimethylamino)azetidin-1-yl)-8-fluoro-7-(5-methyl-1H-pyrazolo[3,4-b]pyridin-4-yl)quinazolin-4-yl)-2,5-dimethylpiperazin-1-yl)prop-2-en-1-one], the Binding % entry is “+ (+ indicates binding activity greater than 0% and up to 50%)”.
With `C=CC(=O)N1C[C@H](C)N(c2nc(N3CC(N(C)C)C3)nc3c(F)c(-c4c(C)ccc5onc(N)c45)c(Cl)cc23)C[C@H]1C` [Compound 50, 1-((2R,5S)-4-(7-(3-amino-5-methylbenzo[d]isoxazol-4-yl)-6-chloro-2-(3-(dimethylamino)azetidin-1-yl)-8-fluoroquinazolin-4-yl)-2,5-dimethylpiperazin-1-yl)prop-2-en-1-one], the Binding % entry is reported as “+++ (+++ indicates binding activity greater than 80%)”.
`C=CC(=O)N1[C@H](C)CN(c2nc(N3CC(N(C)C)C3)nc3c(F)c(-c4c(C)ccc5[nH]nc(C6CC6)c45)c(Cl)cc23)C[C@@H]1C` (atropisomer, axis not shown) [Compound 133, 1-((2S,6R)-4-((S)-6-chloro-7-(3-cyclopropyl-5-methyl-1H-indazol-4-yl)-2-(3-(dimethylamino)azetidin-1-yl)-8-fluoroquinazolin-4-yl)-2,6-dimethylpiperazin-1-yl)prop-2-en-1-one]: the Binding % entry is “+ (+ indicates binding activity greater than 0% and up to 50%)”.
Take `C=CC(=O)N1C[C@@H](C)N(c2nc(N3CC(N(C)C)C3)nc3c(F)c(-c4c(C)ccc5[nH]nc(C6CC6)c45)c(Cl)cc23)C[C@H]1C` (atropisomer, axis not shown) [Compound 251, 1-((2R,5R)-4-((R)-6-chloro-7-(3-cyclopropyl-5-methyl-1H-indazol-4-yl)-2-(3-(dimethylamino)azetidin-1-yl)-8-fluoroquinazolin-4-yl)-2,5-dimethylpiperazin-1-yl)prop-2-en-1-one]: the Binding % entry is given as “+++ (+++ indicates binding activity greater than 80%)”.
Regarding `C=CC(=O)N1C[C@H](C)N(c2nc(N3CC([N+](C)(C)C)C3)nc3c(F)c(-c4c(C)ccc5cnn(C)c45)c(Cl)cc23)C[C@H]1C` [Compound 106, 1-((R)-4-((2S,5R)-4-acryloyl-2,5-dimethylpiperazin-1-yl)-6-chloro-7-(1,6-dimethyl-1H-indazol-7-yl)-8-fluoroquinazolin-2-yl)-N,N,N-trimethylazetidin-3-aminium], the Binding % result was “+++ (+++ indicates binding activity greater than 80%)”.
For `C=CC(=O)N1C[C@H](C)N(c2nc(NCCCN(C)C)nc3c(F)c(-c4c(C)ccc5[nH]nc(N)c45)c(Cl)cc23)C[C@H]1C` [Compound 63, 1-((2R,5S)-4-(7-(3-amino-5-methyl-1H-indazol-4-yl)-6-chloro-2-(3-(dimethylamino)propyl-amino)-8-fluoroquinazolin-4-yl)-2,5-dimethylpiperazin-1-yl)prop-2-en-1-one] the value was “++ (++ indicates binding activity from 50 to 80%)”; for `C=CC(=O)N1C[C@H](C)N(c2nc(OC3CCCOC3)nc3c(F)c(-c4c(C)ccc5cnn(C)c45)c(Cl)cc23)C[C@H]1C` (stereo partly drawn) [Compound 225, 1-((2R,5S)-4-(6-chloro-7-(1,6-dimethyl-1H-indazol-7-yl)-8-fluoro-2-(tetrahydro-2H-pyran-3-yloxy)quinazolin-4-yl)-2,5-dimethylpiperazin-1-yl)prop-2-en-1-one], “++ (++ indicates binding activity from 50 to 80%)”; for `C=CC(=O)N1CCN(c2nc(N3CC(N(C)C)C3)nc3c(F)c(-c4c(C)ccc5cnn(C)c45)c(Cl)cc23)C[C@H]1C` (atropisomer, axis not shown) [Compound 143, 1-((R)-4-((S)-6-chloro-7-(1,6-dimethyl-1H-indazol-7-yl)-2-(3-(dimethylamino)azetidin-1-yl)-8-fluoroquinazolin-4-yl)-2-methylpiperazin-1-yl)prop-2-en-1-one], “+ (+ indicates binding activity greater than 0% and up to 50%)”.
For `[2H]C([2H])([2H])N(C1CN(c2nc(N3C[C@@H](C)N(C(=O)C=C)C[C@@H]3C)c3cc(Cl)c(-c4c(C)ccc5cnn(C)c45)c(F)c3n2)C1)C([2H])([2H])[2H]` (atropisomer, axis not shown) [Compound 212, 1-((2R,5S)-4-((R)-6-chloro-7-(1,6-dimethyl-1H-indazol-7-yl)-2-(3-(di-perdeuteromethylamino)azetidin-1-yl)-8-fluoroquinazolin-4-yl)-2,5-dimethylpiperazin-1-yl)prop-2-en-1-one], the Binding % entry is reported as “+++ (+++ indicates binding activity greater than 80%)”.
